Source: patent US12595269B2, “Morpholine-like monoamine releasers” (Solvonis Therapeutics Ireland Holdings Limited, priority 2022, dated 2026)

Test system: extracellular dopamine (DA), serotonin (5-HT), and noradrenaline (NE) levels in the nucleus accumbens
Test: In vivo microdialysis of monoamines in rat nucleus accumbens after intraperitoneal administration
Design: species or system Sprague Dawley rats
Settings: rat NAcc microdialysis, IP
Description: Methods and Procedure: This study was conducted in compliance with previously described procedures to assure data integrity, adherence to GLP regulations, and standard preclinical study and surgery procedures. The in vivo microdialysis technique was applied to measure the over-time variations of DA, 5-HT, and NE extracellular (EC) concentrations in conscious, freely-moving Sprague Dawley rats. Levels of the neurotransmitters in microdialysis samples were determined using LC-MS/MS analysis. The experiment was also conducted with MDMA, which was used for comparative purposes.
As it relates to cannula implantation, the rats were anesthetized with isoflurane 4% in oxygen (2-2.5 L/min), then the isoflurane concentration 2-2.5% was maintained via a nose cone adapted to the stereotaxic apparatus. The rats were treated with meloxicam (0.2 mg/kg, subcutaneously, sc; Meloxidolor) and amoxicilline (150 mg/kg, sc, Betamox LA). The skull was then shaved and disinfected. Rats were then placed in a stereotaxic apparatus for small animals. One vertical guide cannula was inserted through a 1 mm hole drilled on the exposed skull. Coordinates—with respect to bregma—to target specific brain areas, followed indications from stereotaxic atlas of the rat brain. Specifically a guide cannula (MAB 4.12.IC, Agn Tho's AB, Lidingo, Sweden) was inserted in the NAcc (anteroposterior+1.6; lateral −1.6; dorsoventral −6.0). The guide cannula was then secured with dental cement and 2-4 screws. At the end of the surgery the animal was isolated in a single cage during recovery, for a period of at least one week, during which animal health conditions were checked twice daily and the weight recorded twice a week. Animals continued to be housed singly throughout the experiment. One day before the experiment the cannula stylet was removed and a microdialysis probe with a dialyzing length of 2 mm (MAB 4.12.2 Cu, Agn Tho's AB, Lidingo, Sweden) was inserted. Probes can be re-used 2 times for 2 experimental sessions after appropriate cleaning with fresh milliQ water.
Post-surgery, the rats were maintained in a heating chamber prior to waking up in order to avoid hypothermia that could be caused by anaesthesia. 5 mL of physiologic solution was subcutaneously administered immediately after surgery, and once/day for 2-3 days, if signs of dehydration are noticed. Meloxicam (Meloxidolor) 0.2 mg/kg was again administered subcutaneously the day after surgery as well as after 48h after surgery together with Amoxicilline Long Acting (Betamox LA) 150 mg/kg. Health status and body weight was checked every day during the first week.
The animals were treated with test compounds described herein, MDMA, or their vehicle (saline) according to a Latin square design over 5 separate experimental days (one day/week). The treatments were administered in a volume of 1 mL/kg intraperitoneally.
On the day of the experiment, each animal was taken into the laboratory in its home cage. Inlet tubing of the probe was attached to a dual quartz-lined two channel liquid swivel mounted on a low mass spring counterbalance arm which, in turn, was connected to a gas-tight syringe on a microinfusion pump. […] An equilibration period of about two hours of perfusion was allowed before collecting samples. Following the equilibration period, 4 basal samples were collected for each experimental animal followed by further 10 post-treatment samples. Samples were collected every 20 minutes (up to 3 hours and 20 minutes post-treatment) by means of a refrigerated auto-sampler (Univentor 820 Microsampler, Agn tho's, Sweden) maintained at +8° C. At the end of all experimental sessions, 2 μL of 0.1% methylene blue solution was injected through the microdialysis probe, animals were euthanized, and their brains removed to confirm the correct probe-position.
The concentrations of DA, 5-HT and NE in CSF samples were determined using an optimized method based on LC-MS/MS analysis. […]

Row | SMILES | 5HT level relative to baseline levels (100%) (20 min post-administration) [%] | DA level relative to baseline levels (100%) (20 min post-administration) [%] | NE level relative to baseline levels (100%) (20 min post-administration) [%] | 5HT level relative to baseline levels (100%) (40 min post-administration) [%] | DA level relative to baseline levels (100%) (40 min post-administration) [%] | NE level relative to baseline levels (100%) (40 min post-administration) [%] | 5HT level relative to baseline levels (100%) (60 min post-administration) [%] | DA level relative to baseline levels (100%) (60 min post-administration) [%] | NE level relative to baseline levels (100%) (60 min post-administration) [%] | 5HT level relative to baseline levels (100%) (200 min post-administration) [%] | DA level relative to baseline levels (100%) (200 min post-administration) [%] | NE level relative to baseline levels (100%) (200 min post-administration) [%]
1 | Clc1ccc(C23CNC(CO2)C3)cc1Cl (centres unmarked) [522A, 1-(3,4-dichlorophenyl)-2-oxa-5-azabicyclo[2.2.1]heptane] | 100 | 100 | 130 | 380 | 160 | 150 | 480 | 185 | 160 | 200 | 125 | 125
2 | CNC(C)Cc1ccc2c(c1)OCO2 (centres unmarked) [MDMA, reference compound] | 130 | 120 | 120 | 2150 | 400 | 500 | – | 560 | 500 | 900 | 300 | 300
